Results reported in patent publication US12116424B2, “Compounds and compositions for modulating Listeria virulence” (priority 2021, dated 2024).
Read-outs that look alike come from different tables or passages of the source. Where a SMILES comes first, the peptide text is derived from it. Bridges are numbered along the chain shown (N, C = ends). [ ]: non-standard residue; d: D form.

Molecular target: L. monocytogenes AgrC (Listeria monocytogenes serovar 1/2a, UniProt Q8YAR5)
Assay: Fluorescence (agr-GFP) reporter agonism assay, ΔagrD reporter strain
Type: cell-based
Set-up: Emax: dose or concentration left out as unconfirmed
Details: for loss in potency: relative to native AIP
Description: Construction of Listeria agr Reporter Strains. A gene block was designed and purchased from Integrated DNA Technologies to contain an EagI recognition site, the PII promoter of the agr system, the 3′ UTR of hly, super folder GFP, and a SaII recognition site. The gene block was digested with EagI and SaII, cloned into an EagI/SaII-cut pAM401 plasmid resulting in the plasmid pAM401-KW1, and then transformed into E. coli XL1-Blue competent cells. The insertion into pAM401 was confirmed using Kapa polymerase and primers DAP337 and DAP338, and additional confirmation via commercial sequencing. Purified plasmid was transformed into the conjugative E. coli S17 strain, which was used to conjugate to EGD-e and EGD-e ΔagrD to generate the agr-GFP reporter strains EGD-e:pAM401-KW1 and EGD-e ΔagrD:pAM401-KW1. Conjugation was verified using primers DAP337 and DAP338.
Fluorescence reporter assay protocol. For QS (agr) reporter assays, peptide stock solutions in DMSO (1 mM) were serially diluted in DMSO, and 2 μL of solution was added to each well in a black 96-well plate (polystyrene microtiter plate, Costar). Agonism assays utilized the ΔagrD reporter strain, with 2 μL of 100 μM AIP (final concentration 1 μM) as a positive control and 2 μL of DMSO as a negative control. Antagonism assays utilized the EGD-e reporter strain, with 2 μL of DMSO as a positive control. In both assays, wells containing only BHI media served as negative controls for normalization. An overnight culture of bacteria was diluted 1:50 in fresh BHI, then 198 μL were transferred to each well (excluding the media control wells). Plates were then incubated at 37° C. for 24 hours with shaking at 200 rpm. Fluorescence of GFP (excitation at 500 nm, emission at 540 nm) and OD600 of each well was measured using BioTek Synergy 2 plate reader. Measurements were processed by subtracting background fluorescence (BHI media), correcting by OD600, and the normalizing using the 1 μM AIP or the DMSO control for the agonism and antagonism assays, respectively. Non-linear regression curves were fitted to the data sets in GraphPad Prism 7 by using variable slope (four-parameter) dose-response analysis to obtain potency, efficacy, and statistical information about the activity of tested peptides. Each peptide was tested with three technical replicates and three biological replicates. All data derived from fluorescent reporter strains are represented with data points signifying the mean and error bars signifying the standard deviation from all replicates.
Preparation and Validation of Listeria agr Reporter Strains. In order to facilitate profiling the native AIP and its analogs for agr activity, L. monocytogenes agr GFP reporters were designed and constructed as described above (see Materials and General Methods). Briefly, a plasmid containing the agr promoter region upstream of gfp was transformed into wild-type (EGD-e) and ΔagrD L. monocytogenes strains. The wild-type reporter naturally produces its own AIP and is able to activate AgrC, which may subsequently phosphorylate AgrA for productive binding to DNA and triggering the production of GFP (FIG. 1A). The ΔagrD reporter, lacking the ability to produce its own AIP and thereby activate AgrC, is unable to trigger substantial production of GFP. However, adding exogenous AIP to the ΔagrD reporter results in an increase of fluorescence, indicating agr activity has been restored.

[1] = read-out: Max Activation Observed

L. monocytogenes AgrC, sequence (Q8YAR5 entry or part of it): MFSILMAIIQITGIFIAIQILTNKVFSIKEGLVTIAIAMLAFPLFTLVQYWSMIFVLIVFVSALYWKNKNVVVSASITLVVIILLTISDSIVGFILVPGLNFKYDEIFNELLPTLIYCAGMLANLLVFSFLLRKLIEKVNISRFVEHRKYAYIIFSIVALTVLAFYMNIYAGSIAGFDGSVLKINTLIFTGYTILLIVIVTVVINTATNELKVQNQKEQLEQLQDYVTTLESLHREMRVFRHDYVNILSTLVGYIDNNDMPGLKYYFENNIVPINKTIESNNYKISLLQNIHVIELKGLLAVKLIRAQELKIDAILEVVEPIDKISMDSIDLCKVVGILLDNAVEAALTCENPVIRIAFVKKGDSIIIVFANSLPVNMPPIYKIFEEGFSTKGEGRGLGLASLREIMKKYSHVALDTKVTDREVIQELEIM

Row | Structure (SMILES) | Emax (read-out: Max Activation) [%] | other results
1 | CSCC[C@@H]1NC(=O)[C@H](Cc2ccccc2)NC(=O)[C@@H](NC(=O)[C@H](C)N)CSC(=O)[C@H](C(C)C)NC(=O)[C@@H](Cc2ccccc2)NC1=O [AIP F5dF, A-(C-F-M-dF-V)] (H-ACFM[dF]V; thioester 2-C; N-terminus assumed) | – | loss in potency (agonism): two orders of magnitude; Emax [1]: 72.3%; agonism activity (in words) (ΔagrD reporter): maintain some agonism activity
2 | CC(C)[C@@H]1NC(=O)[C@H](Cc2ccccc2)NC(=O)[C@H](C)NC(=O)[C@H](Cc2ccccc2)NC(=O)[C@@H](NC(=O)[C@H](C)N)CSC1=O [AIP M4A, A-(C-F-A-F-V)] (H-ACFAFV; thioester 2-C; N-terminus assumed) | – | Emax [1]: 53.5%; EC50 (in words) (ΔagrD reporter): low micromolar range; agonism activity (in words) (ΔagrD reporter): decreased potency and agonism compared to the native AIP
3 | CC(C)[C@@H]1NC(=O)[C@H](Cc2ccccc2)NC(=O)[C@@H](C)NC(=O)[C@H](Cc2ccccc2)NC(=O)[C@@H](NC(=O)[C@H](C)N)CSC1=O [AIP M4dA, A-(C-F-dA-F-V)] (H-ACF[dA]FV; thioester 2-C; N-terminus assumed) | – | improved potency (agonism, relative to AIP M4A): about four-fold; Emax [1]: 82%
4 | CSCC[C@@H]1NC(=O)[C@H](Cc2ccccc2)NC(=O)[C@@H](NC(=O)[C@H](C)N)CSC(=O)[C@H](C)NC(=O)[C@H](Cc2ccccc2)NC1=O [AIP V6A, A-(C-F-M-F-A)] (H-ACFMFA; thioester 2-C; N-terminus assumed) | 69 | Emax [1]: 69%; agonism activity (in words) (ΔagrD reporter): decreased potency and agonism compared to the native AIP
5 | CSCC[C@@H]1NC(=O)[C@H](Cc2ccccc2)NC(=O)[C@@H](NC(=O)[C@H](C)N)CSC(=O)[C@@H](C(C)C)NC(=O)[C@H](Cc2ccccc2)NC1=O [AIP V6dV, A-(C-F-M-F-dV)] (H-ACFMF[dV]; thioester 2-C; N-terminus assumed) | – | Emax [1]: 72.9%
6 | CSCC[C@@H]1NC(=O)[C@H](Cc2ccccc2)NC(=O)[C@@H](NC(C)=O)CSC(=O)[C@H](C(C)C)NC(=O)[C@H](Cc2ccccc2)NC1=O [Ac-5-mer, Ac-(C-F-M-F-V)] (Ac-CFMFV; thioester 1-C) | 75.3 | –
7 | CSCC[C@@H]1NC(=O)[C@H](Cc2ccccc2)NC(=O)[C@@H](N)CSC(=O)[C@H](C(C)C)NC(=O)[C@H](Cc2ccccc2)NC1=O [Compound 5-mer, (C-F-M-F-V)] (H-CFMFV; thioester 1-C) | 110 | loss in potency (agonism): ten-fold; agonism activity (in words) (ΔagrD reporter): fully maintained its agonism activity
8 | CSCC[C@@H]1NC(=O)[C@H](Cc2ccccc2)NC(=O)[C@@H](NC(=O)[C@H](C)NC(=O)[C@@H](N)CCCCN)CSC(=O)[C@H](C(C)C)NC(=O)[C@H](Cc2ccccc2)NC1=O [Compound 7-mer, K-A-(C-F-M-F-V)] (H-KACFMFV; thioester 3-C; N-terminus assumed) | 64.6 | –
9 | CSCC[C@@H]1NC(=O)[C@H](Cc2ccccc2)NC(=O)[C@@H](NC(=O)[C@H](C)NC(=O)[C@H](CCCCN)NC(=O)[C@@H](N)CO)CSC(=O)[C@H](C(C)C)NC(=O)[C@H](Cc2ccccc2)NC1=O [Compound 8-mer, S-K-A-(C-F-M-F-V)] (H-SKACFMFV; thioester 4-C; N-terminus assumed) | 71.5 | –
10 | CSCC[C@@H]1NC(=O)[C@H](Cc2ccccc2)NC(=O)[C@@H](NC(=O)[C@H](C)NC(=O)[C@H](CCCCN)NC(=O)[C@H](CO)NC(=O)[C@@H](N)CCSC)CSC(=O)[C@H](C(C)C)NC(=O)[C@H](Cc2ccccc2)NC1=O [Compound 9-mer, M-S-K-A-(C-F-M-F-V)] (H-MSKACFMFV; thioester 5-C; N-terminus assumed) | 93.6 | –
11 | CSCC[C@@H]1NC(=O)[C@H](Cc2ccccc2)NC(=O)[C@@H](NC(=O)[C@H](C)NC(=O)[C@H](CCCCN)NC(=O)[C@H](CO)NC(=O)[C@H](CCSC)NC(=O)[C@@H](N)CO)CSC(=O)[C@H](C(C)C)NC(=O)[C@H](Cc2ccccc2)NC1=O [Compound 10-mer, S-M-S-K-A-(C-F-M-F-V)] (H-SMSKACFMFV; thioester 6-C; N-terminus assumed) | 110 | –
12 | CSCC[C@@H]1NC(=O)[C@H](Cc2ccccc2)NC(=O)[C@@H](NC(=O)[C@H](C)NC(=O)[C@H](CCCCN)NC(=O)[C@H](CO)NC(=O)[C@H](CCSC)NC(=O)[C@H](CO)NC(=O)[C@@H](N)CO)CSC(=O)[C@H](C(C)C)NC(=O)[C@H](Cc2ccccc2)NC1=O [Compound 11-mer, S-S-M-S-K-A-(C-F-M-F-V)] (H-SSMSKACFMFV; thioester 7-C; N-terminus assumed) | 111 | –
13 | CSCC[C@H](NC(=O)[C@H](CO)NC(=O)[C@H](CO)NC(=O)[C@@H](N)CC(=O)O)C(=O)N[C@@H](CO)C(=O)N[C@@H](CCCCN)C(=O)N[C@@H](C)C(=O)N[C@H]1CSC(=O)[C@H](C(C)C)NC(=O)[C@H](Cc2ccccc2)NC(=O)[C@H](CCSC)NC(=O)[C@H](Cc2ccccc2)NC1=O [Compound 12-mer, D-S-S-M-S-K-A-(C-F-M-F-V)] (H-DSSMSKACFMFV; thioester 8-C; N-terminus assumed) | 116 | –
14 | CSCC[C@H](NC(=O)[C@H](CO)NC(=O)[C@H](CO)NC(=O)[C@H](CC(=O)O)NC(=O)[C@H](C)N)C(=O)N[C@@H](CO)C(=O)N[C@@H](CCCCN)C(=O)N[C@@H](C)C(=O)N[C@H]1CSC(=O)[C@H](C(C)C)NC(=O)[C@H](Cc2ccccc2)NC(=O)[C@H](CCSC)NC(=O)[C@H](Cc2ccccc2)NC1=O [Compound 13-mer, A-D-S-S-M-S-K-A-(C-F-M-F-V)] (H-ADSSMSKACFMFV; thioester 9-C; N-terminus assumed) | 108 | –
15 | CSCC[C@H](NC(=O)[C@H](CO)NC(=O)[C@H](CO)NC(=O)[C@H](CC(=O)O)NC(=O)[C@H](C)NC(=O)[C@@H](N)C(C)C)C(=O)N[C@@H](CO)C(=O)N[C@@H](CCCCN)C(=O)N[C@@H](C)C(=O)N[C@H]1CSC(=O)[C@H](C(C)C)NC(=O)[C@H](Cc2ccccc2)NC(=O)[C@H](CCSC)NC(=O)[C@H](Cc2ccccc2)NC1=O [Compound 14-mcr, V-A-D-S-S-M-S-K-A-(C-F-M-F-V)] (H-VADSSMSKACFMFV; thioester 10-C; N-terminus assumed) | 105 | –
16 | CSCC[C@H](NC(=O)[C@H](CO)NC(=O)[C@H](CO)NC(=O)[C@H](CC(=O)O)NC(=O)[C@H](C)NC(=O)[C@@H](NC(=O)[C@@H](N)CCCCN)C(C)C)C(=O)N[C@@H](CO)C(=O)N[C@@H](CCCCN)C(=O)N[C@@H](C)C(=O)N[C@H]1CSC(=O)[C@H](C(C)C)NC(=O)[C@H](Cc2ccccc2)NC(=O)[C@H](CCSC)NC(=O)[C@H](Cc2ccccc2)NC1=O [Compound 15-mer, K-V-A-D-S-S-M-S-K-A-(C-F-M-F-V)] (H-KVADSSMSKACFMFV; thioester 11-C; N-terminus assumed) | 122 | –
17 | CC(=O)N[C@H]1CSC(=O)[C@H](C(C)C)NC(=O)[C@H](Cc2ccccc2)NC(=O)CNC(=O)[C@H](C(C)C)NC1=O [L. grandensis tr AIP, Ac-(C-V-G-F-V), reference compound] (Ac-CVGFV; thioester 1-C) | 10.1 | –
18 | CSCC[C@@H]1NC(=O)[C@H](CO)NC(=O)[C@@H](NC(=O)[C@H](C)N)CSC(=O)[C@H](C)NC(=O)[C@H](Cc2ccccc2)NC1=O [L. grayi AIP, A-(C-S-M-F-A), reference compound] (H-ACSMFA; thioester 2-C; N-terminus assumed) | 10.7 | –
19 | CC(C)C[C@@H]1NC(=O)CNC(=O)[C@H](C(C)C)NC(=O)[C@@H](NC(=O)[C@@H](N)CO)CSC(=O)[C@H](CO)NC1=O [L. kieliensis AIP, S-(C-V-G-L-S), reference compound] (H-SCVGLS; thioester 2-C; N-terminus assumed) | 10.4 | –
20 | CC[C@H](C)[C@@H]1NC(=O)[C@H](CC(C)C)NC(=O)[C@H](Cc2ccccc2)NC(=O)[C@@H](NC(=O)[C@@H](N)CO)CSC(=O)[C@H](Cc2ccccc2)NC1=O [L. newyorkensis AIP, S-(C-F-L-I-F), reference compound] (H-SCFLIF; thioester 2-C; N-terminus assumed) | 23.6 | agonism or antagonism activity compared to vehicle (FIG. 1B) (10 μM, wild-type reporter or ΔagrD reporter): minimal efficacy
